Target: human recombinant GABAA α5β3γ2 receptor (Homo sapiens (Human), UniProt P18507+P31644)
Assay: Radioligand ([3H]Ro151788) receptor binding assay
Conditions: membranes of HEK cells expressing human recombinant GABAA α5β3γ2; 0.5 nM [3H]Ro151788; 60 minutes at 4° C.; read-out: hGABAA α5 Ki
Description: The GABAA α5β3γ2 protein used for the receptor binding assay was derived from membranes produced from HEK cells (Millipore CYL3073) expressing the human recombinant GABAA α5β3γ2 receptor. Cells were stored and cultured in-house according to the instructions provided by the vendor (Millipore). Cell pellet was homogenized in 10 times modified Krebs Henseleit buffer (membrane preparation buffer): 20 mM Tris, 120 mM NaCl, 100 mM KCl, 25 mM CaCl2 and 25 mM MgCl2 pH=7.4 at 4° C. using Ultra Turrax (Janke&Kunkel) maximal speed for 15 seconds. The homogenate was centrifuged at 40,000 g for 30 minutes at 4° C. Supernatant was discarded and the resulting pellet was washed in membrane preparation buffer. Pellet was resuspended in membrane preparation buffer and aliquots of 1.4 mL ampules were stored at −70° C. until use.
Receptor binding assays were performed in 96-well format in deep-well plates. For each 96-well plate one ampule of membrane homogenate was thawed and diluted in binding buffer (50 mM Tris pH=7.4, 100 mM KCl) and 200 μL was dispensed into each well. Radioligand [^3H]Ro151788 (Perkin Elmer: NET757250UC) was prepared in binding buffer and added to each well in 50 μL volume to give final concentration of 0.5 nM. Test compounds in suitable concentration(s) were added in additional 50 μL. The final assay volume was 300 μL. Incubation was carried out for 60 minutes at 4° C. For non-specific binding 10 μM unlabeled diazepam was used. After incubation samples were filtered over UniFilter® GF/BT using Filtermate Harvester (Perkin Elmer) and washed with 5×1 mL binding buffer. The plate was dried at 40° C. for an hour and 40 μL Microscint (Perkin Elmer) scintillation cocktail was added to each well. The plate was read in Microbeta (Perkin Elmer).
The specific radioligand binding (SB) was defined as the difference between total binding (Tot) and the non-specific binding (NSB). Results are expressed as a percent inhibition of specific binding obtained in the presence of compound of interest.
For IC50 and Ki determination a minimum of six drug concentrations in triplicate were used. IC50 values (i.e. concentration of compound giving 50% inhibition of specific binding) were calculated from concentration-displacement curves by sigmoidal fitting using Origin 7.5 software. Ki values (i.e. inhibition constants) were calculated using the Cheng-Prusoff equation Ki=IC50/[1+(L/KD)], where [L] is the radioligand concentration and KD the affinity of the labelled ligand for receptor. KD was determined from the Saturation analyses.

Sequence of human recombinant GABAA α5β3γ2 receptor (P31644 32-462): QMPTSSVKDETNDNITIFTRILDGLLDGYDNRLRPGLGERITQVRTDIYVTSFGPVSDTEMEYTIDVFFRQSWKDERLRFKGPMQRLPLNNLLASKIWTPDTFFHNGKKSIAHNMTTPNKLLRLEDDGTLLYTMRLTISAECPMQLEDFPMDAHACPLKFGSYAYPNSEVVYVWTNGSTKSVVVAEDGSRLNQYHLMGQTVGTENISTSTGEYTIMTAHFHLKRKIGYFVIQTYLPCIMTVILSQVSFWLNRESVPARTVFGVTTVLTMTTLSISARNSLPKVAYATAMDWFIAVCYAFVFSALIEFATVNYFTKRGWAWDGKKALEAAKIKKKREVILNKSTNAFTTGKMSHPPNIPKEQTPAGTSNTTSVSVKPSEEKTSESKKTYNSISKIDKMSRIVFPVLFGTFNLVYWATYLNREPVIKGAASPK
Sequence of human recombinant GABAA α5β3γ2 receptor (P28472 26-473 partner): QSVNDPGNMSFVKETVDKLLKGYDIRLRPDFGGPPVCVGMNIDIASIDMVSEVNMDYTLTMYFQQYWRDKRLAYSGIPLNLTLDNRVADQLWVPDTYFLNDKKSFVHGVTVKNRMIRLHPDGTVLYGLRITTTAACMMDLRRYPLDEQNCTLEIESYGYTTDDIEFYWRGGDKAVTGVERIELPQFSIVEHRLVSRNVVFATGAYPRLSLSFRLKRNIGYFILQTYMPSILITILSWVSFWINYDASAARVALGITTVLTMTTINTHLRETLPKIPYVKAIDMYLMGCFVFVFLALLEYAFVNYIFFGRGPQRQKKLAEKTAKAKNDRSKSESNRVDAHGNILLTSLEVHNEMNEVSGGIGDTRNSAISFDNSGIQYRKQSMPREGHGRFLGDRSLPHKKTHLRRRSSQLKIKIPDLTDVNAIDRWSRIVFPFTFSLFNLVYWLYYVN
Sequence of human recombinant GABAA α5β3γ2 receptor (P18507 40-475): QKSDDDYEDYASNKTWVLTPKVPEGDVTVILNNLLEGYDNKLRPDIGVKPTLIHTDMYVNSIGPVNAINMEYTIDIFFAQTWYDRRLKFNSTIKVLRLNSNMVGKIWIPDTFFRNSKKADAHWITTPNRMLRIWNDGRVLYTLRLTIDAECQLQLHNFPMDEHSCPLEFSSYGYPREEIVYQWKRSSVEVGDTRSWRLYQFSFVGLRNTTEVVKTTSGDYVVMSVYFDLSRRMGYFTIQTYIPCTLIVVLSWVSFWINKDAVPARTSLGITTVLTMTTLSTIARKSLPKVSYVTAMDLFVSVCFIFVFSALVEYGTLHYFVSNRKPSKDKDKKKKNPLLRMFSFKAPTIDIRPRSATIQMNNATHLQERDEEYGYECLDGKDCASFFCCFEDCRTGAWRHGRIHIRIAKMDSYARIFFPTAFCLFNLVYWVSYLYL

For `Cc1ccc(-n2nnc(C)c2COc2cc3c(cn2)CN(C(=O)CF)CC3)cn1` [Example 38, 2-fluoro-1-(6-{[4-methyl-1-(6-methylpyridin-3-yl)-1H-1,2,3-triazol-5-yl]methoxy}-1,2,3,4-tetrahydro-2,7-naphthyridin-2-yl)ethan-1-one], which Ki is on record?
The Ki was 6.6 nM.

Which Ki does the source give for `Cc1ccc(-c2noc(C)c2COc2cc3c(cn2)CN(C(=O)[C@H]2CCC(=O)N2C)CC3)cn1` [Example 21, (5R)-1-methyl-5-(6-{[5-methyl-3-(6-methylpyridin-3-yl)-1,2-oxazol-4-yl]methoxy}-1,2,3,4-tetrahydro-2,7-naphthyridine-2-carbonyl)pyrrolidin-2-one] here?
Its Ki is 5.7 nM.

With `Cc1ccc(-n2nnc(C)c2COc2cc3c(cn2)CN(C(=O)C(C)C)CC3)cn1` [Example 39, 2-methyl-1-(6-{[4-methyl-1-(6-methylpyridin-3-yl)-1H-1,2,3-triazol-5-yl]methoxy}-1,2,3,4-tetrahydro-2,7-naphthyridin-2-yl)propan-1-one] as the compound, how does the Ki read?
The Ki was 30 nM.

Which Ki does the source give for `Cc1ccc(-c2noc(C)c2COc2cc3c(cn2)CN(C(=O)CS(C)(=O)=O)CC3)cn1` [Example 5, 2-methanesulfonyl-1-(6-{[5-methyl-3-(6-methylpyridin-3-yl)-1,2-oxazol-4-yl]methoxy}-1,2,3,4-tetrahydro-2,7-naphthyridin-2-yl)ethan-1-one] here?
The Ki was 3.5 nM.

With `Cc1ccc(-c2noc(C)c2COc2cc3c(cn2)CN(C(=O)C2CCOCC2)CC3)cn1` [Example 10, 6-{[5-methyl-3-(6-methylpyridin-3-yl)-1,2-oxazol-4-yl]methoxy}-2-(oxane-4-carbonyl)-1,2,3,4-tetrahydro-2,7-naphthyridine] as the compound, how does the Ki read?
Its Ki is 17 nM.

With `Cc1ccc(-c2noc(C)c2COc2cc3c(cn2)CN(C(=O)[C@@H]2CCC(=O)N2C)CC3)cn1` [Example 22, (5S)-1-methyl-5-(6-{[5-methyl-3-(6-methylpyridin-3-yl)-1,2-oxazol-4-yl]methoxy}-1,2,3,4-tetrahydro-2,7-naphthyridine-2-carbonyl)pyrrolidin-2-one] as the compound, how does the Ki read?
Its Ki is 9.4 nM.

For `CC(=O)N1CCc2cc(OCc3c(C)nnn3-c3ccc(C)nc3)ncc2C1` [Example 37, 1-(6-{[4-methyl-1-(6-methylpyridin-3-yl)-1H-1,2,3-triazol-5-yl]methoxy}-1,2,3,4-tetrahydro-2,7-naphthyridin-2-yl)ethan-1-one], which Ki is on record?
Its Ki is 7.9 nM.

How did the Ki turn out when `Cc1ccc(-c2nnn(C)c2COc2cc3c(cn2)CN(C(=O)CF)CC3)cn1` [Example 68, 2-fluoro-1-(6-{[1-methyl-4-(6-methylpyridin-3-yl)-1H-1,2,3-triazol-5-yl]methoxy}-1,2,3,4-tetrahydro-2,7-naphthyridin-2-yl)ethan-1-one] was run?
The Ki was 9.1 nM.

For `Cc1ccc(-c2noc(C)c2COc2cc3c(cn2)CN(C(=O)c2ccncc2)CC3)cn1` [Example 9, 6-{[5-methyl-3-(6-methylpyridin-3-yl)-1,2-oxazol-4-yl]methoxy}-2-(pyridine-4-carbonyl)-1,2,3,4-tetrahydro-2,7-naphthyridine], which Ki is on record?
Its Ki is 10 nM.

`Cc1ccc(-c2nnn(C)c2COc2cc3c(cn2)CN(C(=O)C(C)C)CC3)cn1` [Example 63, 2-methyl-1-(6-{[1-methyl-4-(6-methylpyridin-3-yl)-1H-1,2,3-triazol-5-yl]methoxy}-1,2,3,4-tetrahydro-2,7-naphthyridin-2-yl)propan-1-one] was tested. Which Ki did it give?
The Ki was 43 nM.

`CC(=O)N1CCc2cc(OCc3c(C)nnn3-c3ccc(C(F)(F)F)nc3)nnc2C1` [Example 53, 1-[3-({4-methyl-1-[6-(trifluoromethyl)pyridin-3-yl]-1H-1,2,3-triazol-5-yl}methoxy)-5,8-dihydropyrido[3,4-c]pyridazin-7(6H)-yl]ethanone] was tested. Which Ki did it give?
The Ki was 99.1 nM.

How did the Ki turn out when `Cc1nnn(-c2ccc(C(F)(F)F)nc2)c1COc1cc2c(cn1)CN(C(=O)C1CC1)CC2` [Example 51, 2-cyclopropanecarbonyl-6-({4-methyl-1-[6-(trifluoromethyl)pyridin-3-yl]-1H-1,2,3-triazol-5-yl}methoxy)-1,2,3,4-tetrahydro-2,7-naphthyridine] was run?
The Ki was 31 nM.

For `Cc1nnn(-c2ccc(C(F)(F)F)nc2)c1COc1cc2c(cn1)CN(C(=O)C(C)C)CC2` [Example 50, 2-methyl-1-[6-({4-methyl-1-[6-(trifluoromethyl)pyridin-3-yl]-1H-1,2,3-triazol-5-yl}methoxy)-1,2,3,4-tetrahydro-2,7-naphthyridin-2-yl]propan-1-one], which Ki is on record?
The Ki was 44 nM.

`Cc1nnn(-c2ccc(C(F)(F)F)nc2)c1COc1cc2c(cn1)CN(C(=O)CF)CC2` [Example 49, 2-fluoro-1-[6-({4-methyl-1-[6-(trifluoromethyl)pyridin-3-yl]-1H-1,2,3-triazol-5-yl}methoxy)-1,2,3,4-tetrahydro-2,7-naphthyridin-2-yl]ethan-1-one] was tested. Which Ki did it give?
The Ki was 15 nM.

How did the Ki turn out when `Cc1ccc(-c2noc(C)c2COc2cc3c(nn2)CN(C(=O)CF)CC3)cn1` [Example 30, 2-fluoro-1-(3-{[5-methyl-3-(6-methylpyridin-3-yl)-1,2-oxazol-4-yl]methoxy}-5H,6H,7H,8H-pyrido[3,4-c]pyridazin-7-yl)ethan-1-one] was run?
Its Ki is 1.9 nM.

`Cc1ccc(-c2noc(C)c2COc2cc3c(cn2)CN(C(=O)C2CCOC2)CC3)cn1` (centres unmarked) [Example 12, 6-{[5-methyl-3-(6-methylpyridin-3-yl)-1,2-oxazol-4-yl]methoxy}-2-(oxolane-3-carbonyl)-1,2,3,4-tetrahydro-2,7-naphthyridine] was tested. Which Ki did it give?
Its Ki is 7.2 nM.

`CC(=O)N1CCc2cc(OCc3c(-c4ccc(C)nc4)noc3C)nnc2C1` [Example 24, 1-(3-{[5-methyl-3-(6-methylpyridin-3-yl)-1,2-oxazol-4-yl]methoxy}-5H,6H,7H,8H-pyrido[3,4-c]pyridazin-7-yl)ethan-1-one] was tested. Which Ki did it give?
Its Ki is 2.3 nM.

For `Cc1ccc(-c2noc(C)c2COc2cc3c(nn2)CN(C(=O)N2CCOCC2)CC3)cn1` [Example 26, 4-(3-{[5-methyl-3-(6-methylpyridin-3-yl)-1,2-oxazol-4-yl]methoxy}-5H,6H,7H,8H-pyrido[3,4-c]pyridazine-7-carbonyl)morpholine], which Ki is on record?
Its Ki is 13 nM.

Which Ki does the source give for `CCC(=O)N1CCc2cc(OCc3c(C)nnn3-c3ccc(C(F)F)nc3)ncc2C1` [Example 56, 1-[6-({1-[6-(difluoromethyl)pyridin-3-yl]-4-methyl-1H-1,2,3-triazol-5-yl}methoxy)-3,4 dihydro-2,7-naphthyridin-2(1H)-yl]propan-1-one] here?
Its Ki is 1.6 nM.

With `Cc1ccc(-c2noc(C)c2COc2cc3c(nn2)CN(C(=O)C2CC2)CC3)cn1` [Example 28, 5-{4-[({7-cyclopropanecarbonyl-5H,6H,7H,8H-pyrido[3,4-c]pyridazin-3-yl}oxy)methyl]-5-methyl-1,2-oxazol-3-yl}-2-methylpyridine] as the compound, how does the Ki read?
The Ki was 4.4 nM.

`CC(=O)N1CCc2cc(OCc3c(C)nnn3-c3ccc(C(F)F)nc3)ncc2C1` [Example 55, 1-[6-({1-[6-(difluoromethyl)pyridin-3-yl]-4-methyl-1H-1,2,3-triazol-5-yl}methoxy)-3,4 dihydro-2,7-naphthyridin-2(1H)-yl]ethanone] was tested. Which Ki did it give?
Its Ki is 1.1 nM.

`Cc1ccc(-c2noc(C)c2COc2cc3c(cn2)CN(C(=O)C2CCS(=O)(=O)CC2)CC3)cn1` [Example 8, 4-(6-{[5-methyl-3-(6-methylpyridin-3-yl)-1,2-oxazol-4-yl]methoxy}-1,2,3,4-tetrahydro-2,7-naphthyridine-2-carbonyl)-1lambda6-thiane-1,1-dione] was tested. Which Ki did it give?
The Ki was 16 nM.

For `Cc1nnn(-c2ccc(C(F)F)nc2)c1COc1cc2c(cn1)CN(C(=O)CF)CC2` [Example 57, 2-fluoro-1-[6-({4-methyl-1-[6-(difluoromethyl)pyridin-3-yl]-1H-1,2,3-triazol-5-yl}methoxy)-1,2,3,4-tetrahydro-2,7-naphthyridin-2-yl]ethan-1-one], which Ki is on record?
Its Ki is 0.9 nM.

For `CCC(=O)N1CCc2cc(OCc3c(C)nnn3-c3ccc(C)nc3)ncc2C1` [Example 43, 1-(6-{[4-methyl-1-(6-methylpyridin-3-yl)-1H-1,2,3-triazol-5-yl]methoxy}-1,2,3,4-tetrahydro-2,7-naphthyridin-2-yl)propan-1-one], which Ki is on record?
The Ki was 20 nM.

Which Ki does the source give for `Cc1ccc(-n2nnc(C)c2COc2cc3c(cn2)CN(C(=O)C2CC2)CC3)cn1` [Example 44, 2-cyclopropanecarbonyl-6-{[4-methyl-1-(6-methylpyridin-3-yl)-1H-1,2,3-triazol-5-yl]methoxy}-1,2,3,4-tetrahydro-2,7-naphthyridine] here?
Its Ki is 22 nM.

`Cc1ccc(-c2noc(C)c2COc2cc3c(cn2)CN(C(=O)C2CC(=O)N(C(C)C)C2)CC3)cn1` (centres unmarked) [Example 16, 4-(6-{[5-methyl-3-(6-methylpyridin-3-yl)-1,2-oxazol-4-yl]methoxy}-1,2,3,4-tetrahydro-2,7-naphthyridine-2-carbonyl)-1-(propan-2-yl)pyrrolidin-2-one] was tested. Which Ki did it give?
Its Ki is 11 nM.
